Data published in ChEMBL document CHEMBL1157287, “Steroidal saponins from the rhizomes of Polygonatum sibiricum” (J Nat Prod, 2006).

Tested on: MCF7
Assay: Cytotoxicity against human MCF7 cells by MTT assay
Format: functional, cell-based

Structure (SMILES)	IC50
CC1CC[C@@]2(OC1)O[C@H]1C[C@H]3[C@@H]4CC=C5C[C@@H](O[C@@H]6O[C@H](CO)[C@H](O[C@@H]7O[C@H](CO)[C@@H](O)[C@H](O)[C@H]7O[C@@H]7O[C@H](CO)[C@@H](O)[C@H](O)[C@H]7O)[C@H](O)[C@H]6O)CC[C@]5(C)[C@H]4CC[C@]3(C)[C@H]1[C@@H]2C (mixture of isomers)	24.3 µM
CC(=O)O[C@@H]1C[C@H](O[C@@H]2O[C@H](C)[C@H](O[C@@H]3O[C@H](CO)[C@@H](O)[C@H](O)[C@H]3O[C@@H]3O[C@H](CO)[C@@H](O)[C@H](O)[C@H]3O)[C@H](O)[C@H]2O)CC2=CC[C@H]3[C@@H]4C[C@@H]5O[C@@]6(OC[C@@H](C)[C@@H](O)[C@@H]6O)[C@@H](C)[C@@H]5[C@@]4(C)CC[C@@H]3[C@]21C	> 100 µM
